{"source": "patent US20080020977A1", "about": "“Use of Fullerenes to Oxidize Reduced Redox Proteins” (priority 2005, published 2008)", "key": {"cytochrome c": {"tested_on": "cytochrome c", "assay": "Oxidation state of cytochrome c in the xanthine/xanthine oxidase system (absorbance at 550 nm)", "type": "biochemical", "details": "substituted fullerene added at time zero; versus blank without fullerene; data not shown", "method": "The reduction of cytochrome c was performed by employing the xanthine/xanthine oxidase system. The reaction was initiated by the addition of xanthine oxidase (7.5×10^−3 units) to an incubation mixture containing 50 mM potassium phosphate, 0.1 mM EDTA, 0.01 mM cytochrome c, and 0.05 mM xanthine. Xanthine oxidase catalyzed the formation of superoxide radicals, which then reduced cytochrome c to the ferrous form. Reduction of cytochrome c was followed by recording the corresponding increase in the absorbance at 550 nm, using the molar absorption coefficients of 9 mmol^−1cm^−1 and 27.7 mmol^−1cm^−1 for the oxidized (ferric) and reduced (ferrous) forms, respectively. All assays were performed at room temperature. A volume of 3 mL was used in each experiment.\nThe effect of fullerenes on the oxidation state of cytochrome c was studied using substituted fullerenes C3 and DF-1, described above, wherein the substituted fullerene was added to the reaction mixture at 5, 10, or 15 minutes after addition of xanthine oxidase. Results are shown in FIG. 11, with time=0 for each run being the moment when the substituted fullerene was added. In the negative control, without fullerene (blank), reduction of cytochrome c (increase of absorbance at 550 nm) can be seen over 600 sec. […]"}, "mice": {"tested_on": "mice", "details": "oral, about 0.5 mg/kg/day, cited from earlier work"}}}
{"substance": "(C60(>C(COOH)2)3) [C3]", "values": [{"measurement": "extent and rate of reduction of cytochrome c (increase of absorbance at 550 nm)", "setting": "cytochrome c", "result": "reduced"}, {"measurement": "mean survival", "setting": "mice; controls 23.5+/−5.5 months", "result": "28.7+/−3.3 months"}, {"measurement": "increase in mean survival relative to controls", "setting": "mice; p=0.033", "result": "~20", "unit": "%"}]}
